System: 171881-019-R-J1-PDC multicell spheroid viability
Assay: Anticancer human tumor 171881-019-R-J1-PDC patient-derived invasive breast carcinoma cell line growth inhibition [IpAb]
Conditions: for IC50: curve of first compound; for viability, T/C: stronger effect = lower value
Outline: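 Spheroids of 60% malignant cells, 25% HUVEC and 15% MSC were exposed to targeted agents combined with ipatasertib or abemaciclib. Doses started at or near clinical Cmax (10 microM when unknown) and fell in half-log steps.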

[1] = second compound 0.01 µM, first compound 0.00316 µM
[2] = second compound 0.01 µM, first compound 0.01 µM
[3] = second compound 0.01 µM, first compound 0.0316 µM
[4] = second compound 0.01 µM, first compound 0.1 µM
[5] = second compound 0.0316 µM, first compound 0.00316 µM
[6] = second compound 0.0316 µM, first compound 0.01 µM
[7] = second compound 0.0316 µM, first compound 0.0316 µM
[8] = second compound 0.0316 µM, first compound 0.1 µM
[9] = second compound 0.1 µM, first compound 0.00316 µM
[10] = second compound 0.1 µM, first compound 0.01 µM
[11] = second compound 0.1 µM, first compound 0.0316 µM
[12] = second compound 0.1 µM, first compound 0.1 µM
[13] = second compound 0.316 µM, first compound 0.00316 µM
[14] = second compound 0.316 µM, first compound 0.01 µM
[15] = second compound 0.316 µM, first compound 0.0316 µM
[16] = second compound 0.316 µM, first compound 0.1 µM
[17] = second compound 1 µM, first compound 0.00316 µM
[18] = second compound 1 µM, first compound 0.01 µM
[19] = second compound 1 µM, first compound 0.0316 µM
[20] = second compound 1 µM, first compound 0.1 µM
[21] = second compound 0.01 µM, first compound 0.316 µM
[22] = second compound 0.01 µM, first compound 1 µM
[23] = second compound 0.01 µM, first compound 3.16 µM
[24] = second compound 0.01 µM, first compound 10 µM
[25] = second compound 0.0316 µM, first compound 0.316 µM
[26] = second compound 0.0316 µM, first compound 1 µM
[27] = second compound 0.0316 µM, first compound 3.16 µM
[28] = second compound 0.0316 µM, first compound 10 µM
[29] = second compound 0.1 µM, first compound 0.316 µM
[30] = second compound 0.1 µM, first compound 1 µM
[31] = second compound 0.1 µM, first compound 3.16 µM
[32] = second compound 0.1 µM, first compound 10 µM
[33] = second compound 0.316 µM, first compound 0.316 µM
[34] = second compound 0.316 µM, first compound 1 µM
[35] = second compound 0.316 µM, first compound 3.16 µM
[36] = second compound 0.316 µM, first compound 10 µM
[37] = second compound 1 µM, first compound 0.316 µM
[38] = second compound 1 µM, first compound 1 µM
[39] = second compound 1 µM, first compound 3.16 µM
[40] = second compound 1 µM, first compound 10 µM
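Also: spheroids exposed to the agents for seven days before readout.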

| SMILES | IC50 (second compound 0.01 µM) [nM] | IC50 (second compound 0.0316 µM) [nM] | IC50 (second compound 0.1 µM) [nM] | IC50 (second compound 0.316 µM) [nM] | IC50 (second compound 1 µM) [nM] | viability, T/C [3] [%] | viability, T/C [4] [%] | viability, T/C [7] [%] | viability, T/C [8] [%] | viability, T/C [11] [%] | viability, T/C [12] [%] | viability, T/C [15] [%] | viability, T/C [16] [%] | viability, T/C [19] [%] | viability, T/C [20] [%] | viability, T/C [21] [%] | viability, T/C [22] [%] | viability, T/C [25] [%] | viability, T/C [26] [%] | viability, T/C [29] [%] | other results |
| --- | --- | --- | --- | --- | --- | --- | --- | --- | --- | --- | --- | --- | --- | --- | --- | --- | --- | --- | --- | --- | --- |
| CC(C)n1nc(-c2ccc3oc(N)nc3c2)c2c(N)ncnc21 + CCN1CCN(Cc2ccc(Nc3ncc(F)c(-c4cc(F)c5nc(C)n(C(C)C)c5c4)n3)nc2)CC1 | 5.63 | 5.98 | 5.6 | 6.25 | 9.54 | 4.34 | 2.21 | 5.1 | 2.53 | 5.52 | 2.76 | 9.75 | 3.47 | 21.4 | 10.4 |  |  |  |  |  | viability, T/C (second compound 0.01 µM, first compound 0.000316 µM): 99%; viability, T/C (second compound 0.01 µM, first compound 0.001 µM): 102%; viability, T/C [1]: 73.9%; viability, T/C [2]: 25.7%; viability, T/C (second compound 0.0316 µM, first compound 0.000316 µM): 97.9%; viability, T/C (second compound 0.0316 µM, first compound 0.001 µM): 112%; viability, T/C [5]: 80.5%; viability, T/C [6]: 24.8%; viability, T/C (second compound 0.1 µM, first compound 0.000316 µM): 114%; viability, T/C (second compound 0.1 µM, first compound 0.001 µM): 103%; viability, T/C [9]: 75.8%; viability, T/C [10]: 24.3%; viability, T/C (second compound 0.316 µM, first compound 0.000316 µM): 131%; viability, T/C (second compound 0.316 µM, first compound 0.001 µM): 106%; viability, T/C [13]: 81.4%; viability, T/C [14]: 28.5%; viability, T/C (second compound 1 µM, first compound 0.000316 µM): 140%; viability, T/C (second compound 1 µM, first compound 0.001 µM): 125%; viability, T/C [17]: 89.8%; viability, T/C [18]: 48.6% |
| CC1(C)CCC(CN2CCN(c3ccc(C(=O)NS(=O)(=O)c4ccc(NCC5CCOCC5)c([N+](=O)[O-])c4)c(Oc4cnc5[nH]ccc5c4)c3)CC2)=C(c2ccc(Cl)cc2)C1 + CCN1CCN(Cc2ccc(Nc3ncc(F)c(-c4cc(F)c5nc(C)n(C(C)C)c5c4)n3)nc2)CC1 | 5420 | 6190 | 5540 | 5970 | 6550 | 84.5 | 79 | 89.7 | 86.7 | 109 | 105 | 120 | 117 | 138 | 139 | 76.6 | 72.4 | 86.8 | 70.4 | 98.9 | viability, T/C [23]: 83.4%; viability, T/C [24]: 16.6%; viability, T/C [27]: 89.3%; viability, T/C [28]: 25.3%; viability, T/C [30]: 89%; viability, T/C [31]: 79%; viability, T/C [32]: 22.9%; viability, T/C [33]: 109%; viability, T/C [34]: 99.7%; viability, T/C [35]: 89.2%; viability, T/C [36]: 21.1%; viability, T/C [37]: 136%; viability, T/C [38]: 128%; viability, T/C [39]: 104%; viability, T/C [40]: 18.4% |
| CCCS(=O)(=O)Nc1ccc(F)c(C(=O)c2c[nH]c3ncc(-c4ccc(Cl)cc4)cc23)c1F + CCN1CCN(Cc2ccc(Nc3ncc(F)c(-c4cc(F)c5nc(C)n(C(C)C)c5c4)n3)nc2)CC1 | > 10000 | > 10000 | > 10000 | > 10000 | > 10000 | 103 | 80.8 | 96.1 | 88.5 | 113 | 94.9 | 123 | 129 | 143 | 143 | 98.6 | 87 | 90.9 | 91.6 | 107 | viability, T/C [23]: 82.9%; viability, T/C [24]: 83.9%; viability, T/C [27]: 85.4%; viability, T/C [28]: 92.3%; viability, T/C [30]: 98.4%; viability, T/C [31]: 95.5%; viability, T/C [32]: 94.1%; viability, T/C [33]: 112%; viability, T/C [34]: 113%; viability, T/C [35]: 106%; viability, T/C [36]: 99.2%; viability, T/C [37]: 141%; viability, T/C [38]: 137%; viability, T/C [39]: 130%; viability, T/C [40]: 119% |
| COc1c(OCCCN2CCOCC2)ccc2c3n(c(=NC(=O)c4cnc(N)nc4)nc12)CCN3 + CCN1CCN(Cc2ccc(Nc3ncc(F)c(-c4cc(F)c5nc(C)n(C(C)C)c5c4)n3)nc2)CC1 | 19.5 | 21.1 | 20.3 | 23.5 | 31.5 | 31.9 | 5.33 | 38.7 | 4.99 | 31.9 | 5.31 | 45.3 | 7.2 | 56.6 | 17.2 | 1 | 1.29 | 1 | 1.5 | 0.99 | viability, T/C [1]: 115%; viability, T/C [2]: 76.6%; viability, T/C [5]: 113%; viability, T/C [6]: 76.2%; viability, T/C [9]: 115%; viability, T/C [10]: 80.2%; viability, T/C [30]: 1.13%; viability, T/C [13]: 110%; viability, T/C [14]: 76.1%; viability, T/C [33]: 1.95%; viability, T/C [34]: 1.08%; viability, T/C [17]: 121%; viability, T/C [18]: 82.6%; viability, T/C [37]: 4.08%; viability, T/C [38]: 2% |
| Cc1nc(NC(=O)N2CCCC2C(N)=O)sc1-c1ccnc(C(C)(C)C(F)(F)F)c1 (stereo not given) + CCN1CCN(Cc2ccc(Nc3ncc(F)c(-c4cc(F)c5nc(C)n(C(C)C)c5c4)n3)nc2)CC1 | 783 | 733 | 823 | 977 | 1560 | 109 | 112 | 118 | 108 | 117 | 112 | 130 | 112 | 137 | 117 | 72 | 44.7 | 75.7 | 40.9 | 75.9 | viability, T/C [23]: 15.7%; viability, T/C [24]: 1.42%; viability, T/C [27]: 13.5%; viability, T/C [28]: 2.7%; viability, T/C [30]: 44.9%; viability, T/C [31]: 18.3%; viability, T/C [32]: 2.71%; viability, T/C [33]: 85.7%; viability, T/C [34]: 47.2%; viability, T/C [35]: 23%; viability, T/C [36]: 4.63%; viability, T/C [37]: 89.8%; viability, T/C [38]: 64.1%; viability, T/C [39]: 29.7%; viability, T/C [40]: 8.19% |

From PubChem BioAssay AID2060342 (Molecular Pharmacology Branch, DTP, NCI, 2025)
